Results from US20050009903A1, “CB2-selective cannabinoid analogues” (priority 2003, published 2005).
“And” between values parts separate entries of the source, which are not always exact repeats. Identical values can stand only once. Like-named read-outs stand apart in the source and are kept apart here.

Experiments:
[1] = molecular target: CB2 receptor (Homo sapiens, UniProt P34972); assay: CB2 assay: displacement of [3H]CP-55,940 from cloned human CB2 receptor preparation (transfected HEK 293 cells); type: binding; set-up: expressed in transfected cells; conditions: for Ratio CB1/CB2 / Ratio CB17CB2: ratio of Ki values
Chain of CB2 receptor (P34972 whole entry): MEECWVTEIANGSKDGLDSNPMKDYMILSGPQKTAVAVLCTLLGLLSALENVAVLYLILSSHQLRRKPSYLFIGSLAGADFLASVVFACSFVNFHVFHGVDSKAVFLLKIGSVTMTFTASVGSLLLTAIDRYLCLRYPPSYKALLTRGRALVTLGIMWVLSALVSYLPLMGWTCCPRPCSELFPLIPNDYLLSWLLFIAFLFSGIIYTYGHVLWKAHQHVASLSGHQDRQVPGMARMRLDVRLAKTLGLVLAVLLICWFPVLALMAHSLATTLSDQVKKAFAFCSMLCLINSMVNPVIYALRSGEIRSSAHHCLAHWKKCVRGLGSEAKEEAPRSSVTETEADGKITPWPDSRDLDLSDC

[2] = molecular target: T1, CB1 receptor (Rattus norvegicus, UniProt P20272); assay: CB1 assay: displacement of [3H]CP-55,940 from rat brain membrane preparation; type: binding
T1 construct: from tissue; host or cells: rat whole brain, P2 membranes
T1 sequence (P20272 whole entry): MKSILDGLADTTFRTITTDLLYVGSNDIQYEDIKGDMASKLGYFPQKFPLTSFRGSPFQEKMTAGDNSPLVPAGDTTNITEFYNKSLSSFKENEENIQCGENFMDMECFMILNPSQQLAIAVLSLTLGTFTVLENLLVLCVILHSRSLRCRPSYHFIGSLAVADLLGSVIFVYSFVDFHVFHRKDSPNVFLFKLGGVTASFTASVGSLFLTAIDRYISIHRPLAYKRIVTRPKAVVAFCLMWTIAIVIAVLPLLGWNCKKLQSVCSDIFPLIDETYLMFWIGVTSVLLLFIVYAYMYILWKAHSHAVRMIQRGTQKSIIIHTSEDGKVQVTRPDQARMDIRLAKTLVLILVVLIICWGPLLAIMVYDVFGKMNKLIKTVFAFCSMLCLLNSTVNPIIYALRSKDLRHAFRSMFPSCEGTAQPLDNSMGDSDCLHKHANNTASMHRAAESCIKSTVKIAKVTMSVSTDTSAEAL

[3] = cloned human CB2, read-out: Ki at CB2 receptor
[4] = Table 1, mean ± SEM, rat brain membranes, [3H]CP 55,940, read-out: Ki CB1
[5] = Table 1, mean ± SEM, cloned human CB2, [3H]CP 55,940, read-out: Ki CB2
[6] = Ki CB2, Table 1, mean ± SEM, cloned human CB2, [3H]CP 55,940
[7] = Ki at CB2 receptor, cloned human CB2
[8] = rat brain membranes, read-out: Ki at CB1 receptor
[9] = Table 2, mean ± SEM, 3-(alkyl-1-naphthoyl)indoles, read-out: Ki CB2
[10] = Table 3, mean ± SEM, 3-(alkoxy-1-naphthoyl)indoles, the same values as Ki in nM, read-out: CB1 (receptor affinity)
[11] = Table 2, mean ± SEM, 3-(alkyl-1-naphthoyl)indoles, read-out: Ki CB1

Structure (SMILES) | Ratio CB1/CB2 ([1]; Table 1) | Ki [1, 3] | Ki [2, 8] | Ratio CB17CB2 ([1]; Table 2) | other results
COc1cc(C(C)(C)C)cc2c1C1CC(C)=CCC1C(C)(C)O2 (stereo not shown) [Compound 6a, 1-Methoxy-3-(1′,1′-dimethylethyl)-Δ^8-THC] | 5.4 | 1870 ± 867 nM | – | – | Ki [2, 4]: > 10000 nM
CCC(C)(C)c1cc(OC)c2c(c1)OC(C)(C)C1CC=C(C)CC21 (stereo not shown) [Compound 6b, 1-Methoxy-3-(1′,1′-dimethylpropyl)-Δ^8-THC] | 7.1 | – | – | – | Ki [1, 5]: 1400 ± 66 nM; Ki [2, 4]: > 10000 nM
CCCC(C)(C)c1cc(OC)c2c(c1)OC(C)(C)[C@@H]1CC=C(C)C[C@@H]21 [Compound 6c, 3-(1′,1′-Dimethylbutyl)-1-methoxy-Δ^8-THC] | 31 | – | – | – | Ki [1, 6]: 325 ± 70 nM; Ki [1, 7]: 1870 ± 867 nM; Ki [2]: > 10000 nM
CCCCC(C)(C)c1cc(OC)c2c(c1)OC(C)(C)[C@@H]1CC=C(C)C[C@@H]21 [Compound 6d, 1-Methoxy-3-(1′,1′-dimethylpentyl)-Δ^8-THC] | 93 | – | – | – | Ki [1, 6]: 43 ± 3 nM; Ki [2]: 4000 ± 282 nM
CC(C)(C)c1ccc2c(c1)OC(C)(C)C1CC=C(CO)CC21 (stereo not shown) [Compound 9a, 1-Deoxy-3-(1′,1′-dimethylethyl)-11-hydroxy-Δ^8-THC] | – | 18.1 ± 1.8 nM | 270 ± 58 nM | – | –
CCC(C)(C)c1ccc2c(c1)OC(C)(C)[C@@H]1CC=C(CO)C[C@@H]21 [Compound 9b, 1-Deoxy-3-(1′,1′-dimethylpropyl)-11-hydroxy-Δ^8-THC] | 33 | – | – | – | selectivity for the CB2 receptor ([1]; CB2 over CB1 affinity): 25 fold; Ki [1, 7]: 5.6 ± 1.7 nM; Ki [2]: 187 ± 23 nM
CCCC(C)(C)c1ccc2c(c1)OC(C)(C)[C@@H]1CC=C(CO)C[C@@H]21 [Compound 9c, 1-Deoxy-3-(1′,1′-dimethylbutyl)-11-hydroxy-Δ^8-THC] | 25 | – | – | – | Ki [1, 6]: 3.4 ± 0.5 nM; Ki [2]: 84 ± 16 nM
CCCCC(C)(C)c1ccc2c(c1)OC(C)(C)C1CC=C(CO)CC21 (stereo not shown) [Compound 9d, 1-Deoxy-3-(1′,1′-dimethylpentyl)-11-hydroxy-Δ^8-THC] | 5.5 | – | – | – | Ki [1, 5]: 1.6 ± 0.03 nM; Ki [2, 4]: 8.8 ± 1.4 nM
CCCCCC(C)(C)c1ccc2c(c1)OC(C)(C)C1CC=C(CO)CC21 (stereo not shown) [Compound 9e, 1-Deoxy-3-(1′,1′-dimethylhexyl)-11-hydroxy-Δ^8-THC] | 3.5 | 0.52 nM | 1.8 ± 0.3 nM | – | –
COc1cc(C(C)(C)C)cc2c1[C@@H]1CC(CO)=CC[C@H]1C(C)(C)O2 [Compound 11a, 1-Methoxy-3-(1′,1′-dimethylethyl)-11-hydroxy-Δ^8-THC] | 5.6 | – | – | – | Ki [1, 7]: 333 ± 104 nM; Ki [2]: 1860 ± 148 nM
CCC(C)(C)c1cc(OC)c2c(c1)OC(C)(C)C1CC=C(CO)CC21 (stereo not shown) [Compound 11b, 1-Methoxy-3-(1′,1′-dimethylpropyl)-11-hydroxy-Δ^8-THC] | 12 | – | – | – | Ki [1, 5]: 85 ± 21 nM; Ki [2, 4]: 1010 ± 117 nM
CCCC(C)(C)c1cc(OC)c2c(c1)OC(C)(C)[C@@H]1CC=C(CO)C[C@@H]21 [Compound 11c, 1-Methoxy-3-(1′,1′-dimethylbutyl)-11-hydroxy-Δ^8-THC] | 12 | – | – | – | Ki [1, 6]: 28 ± 1 nM; Ki [2]: 347 ± 34 nM
CCCCC(C)(C)c1cc(OC)c2c(c1)OC(C)(C)[C@@H]1CC=C(CO)C[C@@H]21 [Compound 11d, 1-Methoxy-3-(1′,1′-dimethylpentyl)-11-hydroxy-Δ^8-THC] | 9.1 | – | – | – | Ki [1, 6]: 4.4 ± 0.3 nM; Ki [1, 7]: 40 ± 6 nM; Ki [2]: 40 ± 6 nM
CCCCCC(C)(C)c1cc(OC)c2c(c1)OC(C)(C)C1CC=C(CO)CC21 (stereo not shown) [Compound 11e, 1-Methoxy-3-(1′,1′-dimethylhexyl)-11-hydroxy-Δ^8-THC] | 11 | 1.4 nM and 1.2 nM | 15 nM and 14 nM | – | –
CCCCCCC(C)(C)c1cc(OC)c2c(c1)OC(C)(C)[C@@H]1CC=C(CO)C[C@@H]21 [Compound 11f, 11-hydroxy-3-(1′,1′-dimethylheptyl)-1-methoxy-Δ^8-THC] | 14 | – | – | – | Ki [1, 7]: 1 nM and 1.2 nM; Ki [2]: 14 ± 3 nM
CCCCCn1cc(C(=O)c2cccc3ccccc23)c2ccccc21 [JWH-018] | – | – | – | 3.3 | –
CCCn1c(C)c(C(=O)c2cccc3ccc(C)cc23)c2ccccc21 [JWH-046, 2-methyl-1-propyl-3-(7-methyl-1-naphthoyl)indole] | – | – | – | 21 | –
CCCCCn1c(C)c(C(=O)c2cccc3ccc(C)cc23)c2ccccc21 [JWH-048, 2-Methyl-1-pentyl-3-(7-methyl-1-naphthoyl) indole] | – | – | – | 22 | –
CCCn1cc(C(=O)c2cccc3ccccc23)c2ccccc21 [JWH-072] | – | – | – | 6.2 | –
CCCn1cc(C(=O)c2cccc3ccc(C)cc23)c2ccccc21 [JWH-076, 1-Propyl-3-(7-methyl-1-naphthoyl)indole] | – | 106 ± 46 nM | 214 ± 11 nM | 2.0 | –
CCCCCn1cc(C(=O)c2ccc(C)c3ccccc23)c2ccccc21 [JWH-122] | – | – | – | 0.6 | Ki [1, 9]: 1.2 ± 1.2 nM
CCCn1c(C)c(C(=O)c2ccc(C)c3ccccc23)c2ccccc21 [JWH-148, 2-Methyl-1-propyl-3-(4-methyl-1-naphthoyl)indole] | – | 14 ± 1 nM | 123 ± 8 nM | 8.8 | –

Structure (SMILES) | Ratio CB1/CB2 ([1]; Table 1) | Ki [1, 3] | Ki [2, 8] | Ratio CB17CB2 ([1]; Table 2) | other results
CCCCCn1c(C)c(C(=O)c2ccc(C)c3ccccc23)c2ccccc21 [JWH-149] | – | – | – | 6.8 | Ki [1, 9]: 0.73 ± 0.03 nM
CCCCCn1c(C)c(C(=O)c2cccc3cc(OC)ccc23)c2ccccc21 [JWH-153, 2-Methyl-1-pentyl-3-(6-methoxy-1-naphthoyl)indole] | – | 11 ± 1 nM | – | – | Ki [2]: 240 ± 24 nM; Ki [2, 10]: 250 ± 24 nM
CCCCCn1c(C)c(C(=O)c2cccc3ccc(OC)cc23)c2ccccc21 [JWH-159, 2-Methyl-1-pentyl-3-(7-methoxy-1-naphthoyl)indole] | – | 10.4 ± 1.4 nM | 45 ± 1 nM | – | –
CCCn1c(C)c(C(=O)c2cccc3ccc(OC)cc23)c2ccccc21 [JWH-160, 2-Methyl-1-propyl-3-(7-methoxy-1-naphthoyl)indole] | – | – | 1570 ± 201 nM | – | Ki ([1]; Table 3, mean ± SEM, 3-(alkoxy-1-naphthoyl)indoles, the same values as Ki in nM, read-out: CB2 (receptor affinity)): 441 ± 110 nM
CCCn1cc(C(=O)c2cccc3cc(OC)ccc23)c2ccccc21 [JWH-163, 1-Propyl-3-(6-methoxy-1-naphthoyl)indole] | – | 138 ± 12 nM | – | – | Ki [2, 10]: 2360 ± 215 nM
CCCCCn1cc(C(=O)c2cccc3ccc(OC)cc23)c2ccccc21 [JWH-164, 1-Pentyl-3-(7-methoxy-1-naphthoyl)indole] | – | 6.9 ± 0.2 nM | 6.6 ± 0.7 nM | – | –
CCCn1cc(C(=O)c2cccc3ccc(OC)cc23)c2ccccc21 [JWH-165, 1-Propyl-3-(7-methoxy-1-naphthoyl)indole] | – | 71 ± 8 nM | 204 ± 26 nM | – | –
CCCCCn1cc(C(=O)c2cccc3cc(OC)ccc23)c2ccccc21 [JWH-166, 1-Pentyl-3-(6-methoxy-1-naphthoyl)indole] | – | 1.9 ± 0.1 nM | 44 ± 10 nM | – | –
CCCc1ccc(C(=O)c2cn(CCC)c3ccccc23)c2ccccc12 [JWH-180, 1-Propyl-3-(4-propyl-1-naphthoyl)indole] | – | – | – | 2.7 | Ki [1, 9]: 9.6 ± 2 nM; Ki [2, 11]: 26 ± 2 nM
CCCCCn1c(C)c(C(=O)c2ccc(CCC)c3ccccc23)c2ccccc21 [JWH-181, 2-Methyl-1-pentyl-3-(4-propyl-1-naphthoyl)indole] | – | 0.62 ± 0.04 nM | – | 2.1 | Ki [2, 11]: 1.3 ± 0.1 nM
CCCCCn1cc(C(=O)c2ccc(CCC)c3ccccc23)c2ccccc21 [JWH-182, 1-Pentyl-3-(4-propyl-1-naphthoyl)indole] | – | – | – | 0.6 | Ki [1, 9]: 1.1 ± 0.1 nM; Ki [2, 11]: 0.65 ± 0.03 nM
CCCc1ccc(C(=O)c2c(C)n(CCC)c3ccccc23)c2ccccc12 [JWH-189, 2-Methyl-1-propyl-3-(4-propyl-1-naphthoyl)indole] | – | – | – | 4.3 | Ki [1, 9]: 12 ± 0.8 nM; Ki [2, 11]: 52 ± 2 nM
CCCCCn1cc(C(=O)c2ccc(CC)c3ccccc23)c2ccccc21 [JWH-210, 1-Pentyl-3-(4-ethyl-1-naphthoyl)indole] | – | – | 0.46 ± 0.03 nM | 0.67 | Ki [1, 9]: 0.69 ± 0.01 nM
CCCn1c(C)c(C(=O)c2ccc(CC)c3ccccc23)c2ccccc21 [JWH-211, 2-Methyl-1-propyl-3-(4-ethyl-1-naphthoyl)indole] | – | 12 ± 0.8 nM | 70 ± 0.8 nM | 5.8 | –
CCCn1cc(C(=O)c2ccc(CC)c3ccccc23)c2ccccc21 [JWH-212, 1-Propyl-3-(4-ethyl-1-naphthoyl)indole] | – | – | – | 3.3 | Ki [1, 9]: 10 ± 1.2 nM; Ki [2, 11]: 33 ± 0.9 nM
CCCCCn1c(C)c(C(=O)c2ccc(CC)c3ccccc23)c2ccccc21 [JWH-213, 2-Methyl-1-pentyl-3-(4-ethyl-1-naphthoyl)indole] | – | – | – | 3.6 | Ki [1, 9]: 0.42 ± 0.05 nM; Ki [2, 11]: 1.5 ± 0.2 nM
CCCCCn1cc(C(=O)c2cccc3ccc(CC)cc23)c2ccccc21 [JWH-234, 1-Pentyl-3-(7-ethyl-1-naphthoyl)indole] | – | 3.8 ± 0.6 nM | 8.4 ± 1.8 nM | 2.2 | –
CCCn1cc(C(=O)c2cccc3ccc(CC)cc23)c2ccccc21 [JWH-235, 1-Propyl-3-(7-ethyl-1-naphthoyl)indole] | – | 123 ± 34 nM | 338 ± 34 nM | 2.7 | –
CCCn1c(C)c(C(=O)c2cccc3ccc(CC)cc23)c2ccccc21 [JWH-236, 2-Methyl-1-propyl-3-(7-ethyl-1-naphthoyl) indole] | – | 240 ± 63 nM | 1350 ± 204 nM | 5.6 | –
CCCCc1ccc(C(=O)c2cn(CCC)c3ccccc23)c2ccccc12 [JWH-239, 1-Propyl-3-(4-butyl-1-naphthoyl)indole] | – | 52 ± 6 nM | 342 ± 20 nM | 6.6 | –
CCCCCn1cc(C(=O)c2ccc(CCCC)c3ccccc23)c2ccccc21 [JWH-240, 1-Pentyl-3-(4-butyl-1-naphthoyl)indole] | – | 7.2 ± 13 nM | 14 ± 1 nM | 1.9 | –
